In patent publication US20060134102A1, “Lymphotoxin beta receptor agents in combination with chemotherapeutic agents” (Biogen Idec MA Inc., priority 2002, published 2006):
Where “and” joins values, the source holds several entries; their conditions need not be identical. Equal values may be shown once.

Legend:
[1] = system: WiDr human colorectal adenocarcinoma; assay: WiDr xenograft model: growth of established WiDr human colorectal tumors in athymic nude mice (tumor volume/weight, % T/C, Fa, Combination Index); conditions: for Volume Decrease: vs control; for Individual Fractional Inhibition of Tumor Volume / Individual Tumor Volumes: individual animals
Protocol: Therapeutic agents, i.e. LTβR agonist and chemotherapeutic agents, were administered to athymic nude mice who had been implanted with WiDr tumor cells.
WiDr cells were obtained from the American Type Culture Collection (Manassas, Va.). Cells were grown in vitro in 90% Eagle's Minimum Essential Medium with 2 mM L-glutamine and Earle's Balanced Salt Solution (BSS) adjusted to contain 1.5 g/L sodium bicarbonate, 0.1 mM non-essential amino acids, and 1 mM sodium pyruvate plus 10% fetal bovine serum (FBS) without antibiotics (5% CO2). Bacterial cultures were performed on aliquots of the tumor homogenate preparation that was implanted into the mice to ensure that all cultures were negative for bacterial contamination at both 24 and 48 hours post implant.
When the tumors measured approximately 5 mm in length by 5 mm in width, mice were randomized to treatment and control groups. Body weight measurements were recorded twice-weekly beginning on Day 0.
Tumor measurements were determined using Vernier calipers. Tumor size measurements were recorded regularly according to the study, until the termination of the study. The formula to calculate volume for a prolate ellipsoid was used to estimate tumor volume (mm^3) from 2-dimensional tumor measurements: tumor volume (mm^3)=(length×width^2 [L×W^2])÷2. Assuming unit density, volume was converted to weight (i.e., 1 mm^3=1 mg). Tumor growth inhibition was assessed as % T/C, where T is the mean tumor weight of the treatment group and C is the mean tumor weight of the control group. […] Animals were sacrificed accordingly.
Statistical analysis of the tumor weight measurements was performed according to standard statistical methods. Mean, standard deviation (SD), and standard error of the mean (SEM) were determined for body weight and tumor weight for all dose groups at all assessments.
Antitumor efficacy was determined by comparing each treatment group's tumor volume with the control group's tumor volume. Mean tumor volume decrease was calculated as the difference between the control group and the treatment group mean tumor volume. The fractional inhibition of tumor volume, i.e., the fraction affected (Fa), was calculated by dividing the treatment group mean tumor volume decrease by the control group mean tumor volume. […] Further statistical analysis was performed accordingly.

[2] = system: KM-20L2 human colorectal adenocarcinoma; assay: KM-20L2 xenograft model: growth of established KM-20L2 human colorectal tumors in athymic nude mice (tumor volume/weight, % T/C, Fa, Combination Index); format: in vivo; conditions: for Mean Fraction Affected (Fa): Camptosar 3 mg/kg alone; for Fraction affected (Fa): Camptosar 6.0 mg/kg given separately

COc1cccc2c1C(=O)c1c(O)c3c(c(O)c1C2=O)C[C@@](O)(C(=O)CO)C[C@@H]3O[C@H]1C[C@H](N)[C@H](O)[C@H](C)O1 [Adriamycin, adriamycin, reference compound]
Fa (fractional inhibition of tumor volume), group mean ([1]; Adriamycin 4 mg/kg, day 35): −0.204 | Fa, individual animals ([1]; Adriamycin 4 mg/kg, day 35): 0.033 and −0.408 and −1.391 and 0.530 and −0.660 and −0.137 and −0.379 and −0.389 and 0.251 and 0.512 | Tumor Volume, group mean ([1]; Adriamycin 4 mg/kg, day 35): 1353.0 | Tumor volume, individual animals ([1]; Adriamycin 4 mg/kg, day 35): 1582.5 and 2687.5 and 528.1 and 1865.5 and 1277.8 and 1550.2 and 1560.9 and 842.1 and 548.3 | Volume Decrease vs control, group mean ([1]; Adriamycin 4 mg/kg, day 35): −229.0 | Fa (fractional inhibition of tumor volume), group mean ([1]; Adriamycin 6 mg/kg, day 35): 0.089 | Fa, individual animals ([1]; Adriamycin 6 mg/kg, day 35): −0.295 and 0.095 and 0.380 and 0.462 and 0.198 and 0.209 and 0.057 and −0.060 and 0.522 and −0.674 | Tumor Volume, group mean ([1]; Adriamycin 6 mg/kg, day 35): 1023.5 | Tumor volume, individual animals ([1]; Adriamycin 6 mg/kg, day 35): 1455.4 and 696.6 and 605.1 and 901.8 and 889.3 and 1191.2 and 537.2 and 1881.7 | Volume Decrease vs control, group mean ([1]; Adriamycin 6 mg/kg, day 35): 100.5 | Activity by NCI criteria (% T/C at or below 42) ([1]; adriamycin 1 mg/kg to 6 mg/kg intraperitoneal, all tested doses): inactive | Inhibition of tumor growth ([1]; adriamycin 6 mg/kg or 4 mg/kg, day 35, separate study): did not produce a significant inhibition | Tumor growth vs vehicle control ([1]; adriamycin groups, day 42 (end of study)): no significant difference

CC(=O)O[C@H]1C(=O)[C@@]2(C)[C@H]([C@H](OC(=O)c3ccccc3)[C@]3(O)C[C@H](OC(=O)[C@H](O)[C@@H](NC(=O)c4ccccc4)c4ccccc4)C(C)=C1C3(C)C)[C@]1(OC(C)=O)CO[C@@H]1C[C@@H]2O [Taxol, reference compound]
Fa (Fraction Affected) ([1]; Day 34, Taxol 12.5 mg/kg): 0.171 | Tumor Volume ([1]; Day 34, Taxol 12.5 mg/kg): 1141.1 | Fa (Fraction Affected) ([1]; Day 34, Taxol 18.75 mg/kg): 0.588 | Tumor Volume ([1]; Day 34, Taxol 18.75 mg/kg): 567.5 | Volume Decrease ([1]; Day 34, Taxol 18.75 mg/kg): 808.9 | Fa (Fraction Affected) ([1]; Day 34, Taxol 25 mg/kg): 0.812 | Tumor Volume ([1]; Day 34, Taxol 25 mg/kg): 259.1 | Volume Decrease ([1]; Day 34, Taxol 25 mg/kg): 1117.3 | Median Effect Dose ([1]; Day 34, Taxol Given Separately): 12.6 mg/kg | Median Effect Dose ([1]; Day 34, Taxol dose, Combined (0.333:1) with huCBE11): 6.6 mg/kg | Individual Fractional Inhibition of Tumor Volume ([1]; Day 34, Taxol 6.25): 0.231 and −0.036 and 0.421 and 0.375 and 0.469 and 0.157 and 0.552 and 0.284 and −0.217 and 0.168 | Individual Tumor Volumes ([1]; Day 34, Taxol 6.25): 1058.1 and 1425.5 and 796.7 and 860.4 and 730.5 and 1159.9 and 616.0 and 985.1 and 1675.4 and 1144.5 | Individual Fractional Inhibition of Tumor Volume ([1]; Day 34, Taxol 12.5): 0.854 and 0.191 and 0.140 and 0.037 and −0.278 and 0.170 and 0.192 and −0.130 and 0.198 and 0.336 | Individual Tumor Volumes ([1]; Day 34, Taxol 12.5): 201.1 and 1113.1 and 1183.1 and 1325.2 and 1759.5 and 1143.0 and 1112.7 and 1554.9 and 1104.0 and 914.1 | Tumor growth vs vehicle control ([1]; Taxol 12.5 mg/kg, […] and 3.13 mg/kg): did not differ significantly | % T/C ([1]; Taxol 18.75 mg/kg, Days 21 to 34): below 42% | % T/C ([1]; Taxol 25 mg/kg, Days 13 to 39): below 42% | % T/C ([1]; Taxol 25 mg/kg, Days 21 to 50): below 42% | % T/C ([1]; Taxol 12.5, 6.25 and 3.13 mg/kg, throughout the study): > 82%

CCc1c2c(nc3ccc(OC(=O)N4CCC(N5CCCCC5)CC4)cc13)-c1cc3c(c(=O)n1C2)COC(=O)[C@]3(O)CC [Camptosar, irinotecan, reference compound]
Fa (Fraction Affected), group mean ([1]; Camptosar 3 mg/kg, day 21): 0.238 | Fa, individual animals ([1]; Camptosar 3 mg/kg, day 21): 0.336 and 0.314 and 0.078 and 0.269 and 0.245 and −0.068 and 0.513 and 0.208 and 0.093 | Fa (Fraction Affected), group mean ([1]; Camptosar 6 mg/kg, day 21): 0.441 | Fa, individual animals ([1]; Camptosar 6 mg/kg, day 21): 0.302 and 0.473 and 0.521 and 0.544 (2×) and 0.590 and 0.110 and 0.614 and 0.277 | Fa (Fraction Affected), group mean ([1]; Camptosar 10 mg/kg, day 21): 0.476 | Fa, individual animals ([1]; Camptosar 10 mg/kg, day 21): 0.464 and 0.347 and 0.575 and 0.375 and 0.573 and 0.163 and 0.516 and 0.684 and 0.648 | Activity by NCI criteria (% T/C of 42 or less) ([1]; Camptosar […] to 10 mg/kg): inactive | Median Effect Dose ([1]; Camptosar combined with huCBE11 (0.555:1), day 21): 5.7 mg/kg | Median Effect Dose ([1]; Camptosar given separately, day 21): 9.8 mg/kg | Activity by NCI criteria (% T/C at or below 42) ([2]; Camptosar): active | Mean Fraction Affected (Fa) ([2]; Day 9): 0.098 | Mean Fraction Affected (Fa) ([2]; Day 13): 0.327 | Mean Fraction Affected (Fa) ([2]; Day 20): 0.593 | Mean Fraction Affected (Fa) ([2]; Day 23): 0.521 | Mean Fraction Affected (Fa) ([2]; Day 30): 0.406 | Inhibition of tumor growth vs saline control ([2]; Camptosar 6 mg/kg days 13 through 51, 3 mg/kg days 13 through 48, […] days 9 through 44, separate study): statistically significant inhibition of tumor growth | Fraction affected (Fa) ([2]; Day 16): 0.594 | Fraction affected (Fa) ([2]; Day 20): 0.781 | Fraction affected (Fa) ([2]; Day 23): 0.759 | Fraction affected (Fa) ([2]; Day 27): 0.701 | Fraction affected (Fa) ([2]; Day 30): 0.607 | Fraction affected (Fa) ([2]; Day 34): 0.564 | Fraction affected (Fa) ([2]; Day 37): 0.495 | Tumor inhibition ([2]; Camptosar groups, end of day 55, separate study): no significant tumor inhibition | Median Effect Dose ([2]; Combined (1:0.63 huCBE11:Camptosar), dose of the labelled agent in the combination, Day 13): 6.7 mg/kg | Median Effect Dose ([2]; Combined (1:0.63 huCBE11:Camptosar), dose of the labelled agent in the combination, Day 16): 1.6 mg/kg | Median Effect Dose ([2]; Combined (1:0.63 huCBE11:Camptosar), dose of the labelled agent in the combination, Day 20): 0.6 mg/kg | Median Effect Dose ([2]; Combined (1:0.63 huCBE11:Camptosar), dose of the labelled agent in the combination, Day 23): 0.7 mg/kg | Median Effect Dose ([2]; Combined (1:0.63 huCBE11:Camptosar), dose of the labelled agent in the combination, Day 27): 1.0 mg/kg | Median Effect Dose ([2]; Combined (1:0.63 huCBE11:Camptosar), dose of the labelled agent in the combination, Day 30): 1.1 mg/kg | Median Effect Dose ([2]; Combined (1:0.63 huCBE11:Camptosar), dose of the labelled agent in the combination, Day 34): 1.1 mg/kg | Median Effect Dose ([2]; Combined (1:0.63 huCBE11:Camptosar), dose of the labelled agent in the combination, Day 37): 1.0 mg/kg | Median Effect Dose ([2]; Combined (1:0.63 huCBE11:Camptosar), dose of the labelled agent in the combination, Day 41): 1.0 mg/kg | Median Effect Dose ([2]; Given Separately, Day 13): 12.4 mg/kg | Median Effect Dose ([2]; Given Separately, Day 16): 4.0 mg/kg | Median Effect Dose ([2]; Given Separately, Day 20): 2.3 mg/kg | Median Effect Dose ([2]; Given Separately, Day 23): 2.7 mg/kg | Median Effect Dose ([2]; Given Separately, Day 27): 3.2 mg/kg | Median Effect Dose ([2]; Given Separately, Day 30): 4.2 mg/kg | Median Effect Dose ([2]; Given Separately, Day 34): 4.7 mg/kg | Median Effect Dose ([2]; Given Separately, Day 37): 6.0 mg/kg | Median Effect Dose ([2]; Given Separately, Day 41): 7.3 mg/kg

N.N.[Cl][Pt][Cl] [Cisplatin, cisplatin, reference compound]
Fa (fractional inhibition of tumor volume), group mean ([1]; Cisplatin 1 mg/kg, day 44): 0.083 | Fa, individual animals ([1]; Cisplatin 1 mg/kg, day 44): −0.478 and 0.344 and 0.025 and −0.016 and 0.140 and 0.102 and 0.222 and 0.128 and 0.098 and 0.268 | Tumor Volume, group mean ([1]; Cisplatin 1 mg/kg, day 44): 1300.4 | Tumor volume, individual animals ([1]; Cisplatin 1 mg/kg, day 44): 2096.4 and 930.1 and 1383.3 and 1440.7 and 1220.3 and 1274.3 and 1103.9 and 1236.7 and 1280.0 and 1038.3 | Volume Decrease vs control, group mean ([1]; Cisplatin 1 mg/kg, day 44): 118.2 | Fa (fractional inhibition of tumor volume), group mean ([1]; Cisplatin 2 mg/kg, day 44): 0.055 | Fa, individual animals ([1]; Cisplatin 2 mg/kg, day 44): 0.082 and −0.061 and −0.036 and 0.618 and −0.290 and −0.523 and 0.241 and 0.054 and 0.316 and 0.151 | Tumor Volume, group mean ([1]; Cisplatin 2 mg/kg, day 44): 1340.1 | Tumor volume, individual animals ([1]; Cisplatin 2 mg/kg, day 44): 1301.9 and 1505.3 and 1469.5 and 541.4 and 1829.8 and 2160.2 and 1076.4 and 1342.0 and 970.2 and 1204.2 | Volume Decrease vs control, group mean ([1]; Cisplatin 2 mg/kg, day 44): 78.5 | Activity by NCI criteria (% T/C of 42 or less) ([1]; cisplatin 2 mg/kg to 0.25 mg/kg): inactive | Tumor growth vs saline control ([1]; cisplatin 2 mg/kg, 1 mg/kg and 0.25 mg/kg, day 50): did not differ significantly
